Results: patent US5482858A, “Polypeptide linkers for production of biosynthetic proteins” (priority 1993, dated 1996)

What was measured:
[1] = test system: 26-10 BABS (sFv), single chain biosynthetic antibody binding site VH-(Gly4-Ser)3-VL mimicking murine anti-digoxin monoclonal 26-10; assay: Specificity determination by radioimmunoassay (inhibition of 125I-digoxin binding), 26-10 BABS
Protocol: After the plates were washed and blocked with 1% horse serum in PBSA, solutions (50 μl) containing 26-10 Fab or the BABS in either PBSA or 0.01M sodium acetate at pH 5.5 were added to the wells and incubated 2-3 hrs at room temperature.

[2] = target: anti-digoxin 26-10 Fab (murine monoclonal 26-10); assay: Affinity determination by equilibrium binding of 3H-digoxin (immunoprecipitation), 26-10 Fab
Protocol: (§1) Association constants were measured by equilibrium binding studies. […] After 2-3 hrs of incubation at room temperature, the protein was precipitated by the addition of 100 μl goat antiserum to murine Fab fragment (ICN Immuno-Biologicals), 50 μl of the IgG fraction of rabbit anti-goat IgG (ICN ImmunoBiologicals), and 50 μl of a 10% suspension of protein A-Sepharose (Sigma). Following 2 hrs at 4° C., bound and free antigen were separated by vacuum filtration on glass fiber filters (Vacuum Filtration Manifold, Millipore, Bedford, Mass.). Filter disks were then counted in 5 ml of […] scintillation fluid with a Model 1500 Tri-Carb Liquid Scintillation Analyzer (Packard, Sterling, Va.). The Scatchard analyses of the untransformed radioligand binding data using LIGAND, a non-linear curve fitting program based on mass action. Ko s were also calculated by Sips plots and binding isotherms shown in FIG. 13A for the BABS and 13B for the Fab. […] These binding data are also plotted in linear form as Sips plots (inset), having the same abscissa as the binding isotherm but with the ordinate representing log r/(n-r), defined below.

[3] = target: 26-10 BABS, single chain biosynthetic antibody binding site VH-(Gly4-Ser)3-VL mimicking murine anti-digoxin monoclonal 26-10; assay: Affinity determination by equilibrium binding of 3H-digoxin (immunoprecipitation), 26-10 BABS
Protocol: as §1

[4] = target: IgG2a,k monoclonal antibody 26-10 (parent anti-digoxin antibody); conditions: cited from earlier work
[5] = normalizing glycoside Digoxigenin

Structure (SMILES) | normalized concentration of inhibitor giving 50% inhibition of 125I-digoxin binding [1, 5] | normalized concentration of inhibitor giving 50% inhibition of 125I-digoxin binding ([1]; normalizing glycoside Digoxin) | further results
C[C@]12CC[C@H](O)C[C@H]1CC[C@@H]1[C@@H]2C[C@@H](O)[C@]2(C)[C@@H](C3=CC(=O)OC3)CC[C@]12O [Digoxigenin] | 1.0 | 7.3 | 
C[C@]12CC[C@H](O)C[C@H]1CC[C@@H]1[C@@H]2CC[C@]2(C)[C@@H](C3=CC(=O)OC3)CC[C@]12O [Digitoxigenin] | 0.4 | 2.6 | 
C[C@@H]1O[C@@H](O[C@H]2C[C@@H](O)[C@]3(CO)[C@H]4[C@H](O)C[C@]5(C)[C@@H](C6=CC(=O)OC6)CC[C@]5(O)[C@@H]4CC[C@]3(O)C2)[C@H](O)[C@H](O)[C@H]1O [Ouabain] | 21 | 150 | 
C[C@H]1O[C@@H](O[C@H]2[C@@H](O)C[C@H](O[C@H]3[C@@H](O)C[C@H](O[C@H]4CC[C@@]5(C)[C@H](CC[C@@H]6[C@@H]5CC[C@]5(C)[C@@H](C7=CC(=O)OC7)CC[C@]65O)C4)O[C@@H]3C)O[C@@H]2C)C[C@H](O)[C@@H]1O [Digitoxin] | 0.3 | 2.0 | 
C[C@H]1O[C@@H](O[C@H]2[C@@H](O)C[C@H](O[C@H]3[C@@H](O)C[C@H](O[C@H]4CC[C@@]5(C)[C@H](CC[C@@H]6[C@@H]5C[C@@H](O)[C@]5(C)[C@@H](C7=CC(=O)OC7)CC[C@]65O)C4)O[C@@H]3C)O[C@@H]2C)C[C@H](O)[C@@H]1O [Digoxin] |  |  | Association Constant, Ko (Fab) ([2]; Binding isotherm): 3.3e+08 M⁻¹; Association Constant, Ko (Fab) ([2]; Scatchard plot): (1.9 ± 0.2) × 10^8 M^-1; Association Constant, Ko (Fab) ([2]; Sips plot): 1.8e+08 M⁻¹; Association Constant, Ko (BABS) ([3]; Binding isotherm): 5.2e+07 M⁻¹; Association Constant, Ko (BABS) ([3]; Scatchard plot): (3.2 ± 0.9) × 10^7 M^-1; Association Constant, Ko (BABS) ([3]; Sips plot): 2.6e+07 M⁻¹; Kd [4]: 0.185 nM
CC(=O)OC1CCC2(C=O)C3CCC4(C)C(C5=CC(=O)OC5)CCC4(O)C3CCC2(O)C1 (stereo not shown) [Acetyl Strophanthidin] | 0.8 | 5.9 | 
C[C@H]1O[C@@H](O[C@H]2[C@@H](O)C[C@H](O[C@H]3[C@@H](O)C[C@H](O[C@H]4CC[C@@]5(C)[C@H](CC[C@@H]6[C@@H]5CC[C@]5(C)[C@@H](C7=CC(=O)OC7)[C@@H](O)C[C@]65O)C4)O[C@@H]3C)O[C@@H]2C)C[C@H](O)[C@@H]1O [Gitoxin] | 8.5 | 62 | 
